Experimental data: PubChem BioAssay (NCI)
Converted amounts (≈) assume the structure as drawn. “And” between values parts separate entries of the source, which are not always exact repeats. Equal values may be shown once.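 Interpolation was linear, between the two tested concentrations surrounding the appropriate level; five concentrations were tested over 48 hours in 96-well plates. The concentration for 50% growth inhibition is given as GI50. At the TGI there is no net growth.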

How the values were obtained:
Test in all cases: NCI anticancer screen, dose series, 48 h
[1] = system: HCT-15 colon
[2] = system: COLO 205 colon
[3] = system: OVCAR-8 ovarian
[4] = system: UO-31 renal
[5] = system: SF-268 CNS
[6] = system: OVCAR-3 ovarian
[7] = system: A549 NSCLC
[8] = system: NCI-H522 lung
[9] = system: NCI/ADR-RES ovarian
[10] = system: DU-145 prostate

Row | SMILES | TGI [1] | TGI [2] | TGI [3] | TGI [4] | TGI [5] | TGI [6] | TGI [7] | TGI [8] | TGI [9] | TGI [10] | GI50 [1] | GI50 [2] | GI50 [3] | GI50 [4] | GI50 [6] | GI50 [8] | GI50 [9] | GI50 [10] | GI50 [5] | GI50 [7]
1 | CN1C(=Nc2ccccc2)SC1=Nc1ccccc1 | > 100 µM | > 100 µM | > 100 µM | > 100 µM | > 100 µM | > 100 µM | > 100 µM | 41.3 µM |  |  |  |  |  |  |  |  |  |  |  | 
2 | CN(C)CC/C(=N\Nc1ccc([N+](=O)[O-])cc1)c1ccccc1 | 27.2 µM | 28.5 µM | 27.1 µM | 6.02 µM | 27.4 µM | 31.2 µM | 26.8 µM | 29.1 µM |  |  |  |  |  |  |  |  |  |  |  | 
3 | COC(=O)C1(C)CCC(c2ccc(C)cc2)=C(CC(=O)O)C1 (stereo unspecified) | > 100 µM | > 100 µM | > 100 µM |  | > 100 µM | > 100 µM | > 100 µM | > 100 µM | > 100 µM | > 100 µM |  |  |  |  |  |  |  |  |  | 
4 | O=[N+]([O-])c1cc(C(F)(F)F)cc([N+](=O)[O-])c1CCl |  | 4.14 µM | 4.91 µM | 20.6 µM | 27.2 µM | 10.5 µM | 24.7 µM | 0.812 µM |  |  |  |  |  |  |  |  |  |  |  | 
5 | Cc1cc(=O)n(-c2ccccc2C)c(C)n1 | > 100 µM | > 100 µM | > 100 µM | > 100 µM | > 100 µM | > 100 µM | > 100 µM | > 100 µM |  |  |  |  |  |  |  |  |  |  |  | 
6 | CCC(C)(CC(C)(C)C(=O)NCC(=O)NC(Cc1ccccc1)C(=O)NC(Cc1ccccc1)C(=O)NCC(=O)NC1CC(OC2CC(O)(C(=O)CO)Cc3c(O)c4c(c(O)c32)C(=O)c2c(OC)cccc2C4=O)OC(C)C1O)C(=O)NCC(C)O (stereo unspecified) | 1.5 µg/mL | > 150 µg/mL | > 150 µg/mL | > 150 µg/mL |  | > 150 µg/mL |  | > 150 µg/mL | > 150 µg/mL | > 150 µg/mL | 1.5 µg/mL | 102 µg/mL | 138 µg/mL | > 150 µg/mL | > 150 µg/mL | 45.5 µg/mL (≈ 38.2 µM) | > 150 µg/mL | 121 µg/mL (≈ 101 µM) |  | 
7 | COc1cc2c(c(OC)c1OC)-c1ccc(SC)c(=O)cc1C(CO)C2 (stereo unspecified) | 0.723 µM and 1.3 µM |  |  | > 100 µM |  | 0.449 µM | > 100 µM | 0.271 µM |  |  | < 10 nM | < 10 nM | < 10 nM | < 10 nM |  |  |  |  | < 10 nM | < 10 nM
8 | OC(c1ccccc1)(c1ccccc1)c1ccncc1 | > 100 µM | > 100 µM | > 100 µM | > 100 µM | > 100 µM | > 100 µM | > 100 µM | > 100 µM |  |  |  |  |  |  |  |  |  |  |  | 
9 | CN(CCCn1c2c(c3ccccc3c1=O)C(=O)c1ccccc1-2)CCCn1c2c(c3ccccc3c1=O)C(=O)c1ccccc1-2 | 2.62 µM | > 45.7 µM |  | 6.26 µM | > 100 µM |  | 4.21 µM | > 100 µM | 4.32 µM |  | 229 nM | 1640 nM |  | 1420 nM |  |  | 1050 nM |  | 1640 nM | 1130 nM
10 | c1ccc2c(c1)cc(C1NCCc3[nH]cnc31)c1ccccc12 (stereo unspecified) | > 100 µM | 26.4 µM | > 100 µM | > 100 µM | > 100 µM | > 100 µM | > 100 µM | > 68.5 µM |  |  |  |  |  |  |  |  |  |  |  | 
